{
  "source": "PubChem BioAssay AID256",
  "about": "(DTP/NCI, 2004)",
  "tested_on": "CD2F1 mice, L1210 leukemia ip, survival T/C",
  "assay": "NCI In Vivo Anticancer Drug Screen. Data for tumor model L1210 Leukemia (intraperitoneal) in CD2F1 (CDF1) mice",
  "conditions": "higher = longer survival",
  "in_short": "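Vehicle-treated tumor-bearing mice served as controls (C) for compound-treated mice (T). Reported figure is T divided by C.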",
  "note": "“And” between values parts separate entries of the source, which are not always exact repeats. Equal values may be shown once. Toxic doses and inconclusive results are not listed.",
  "data": [
    {"smiles": "S=P(N1CC1)(N1CC1)N1CC1", "values": [
      {"measurement": "T/C", "setting": "endpoint: mean survival time, dose: 0.5 mg/kg/injection, schedule: Q01DX009 (ip), vehicle: saline", "value": "112 % of control"},
      {"measurement": "T/C", "setting": "endpoint: mean survival time, dose: 0.5 mg/kg/injection, schedule: Q03HX024 (ip), vehicle: saline", "value": "112 % of control"},
      {"measurement": "T/C", "setting": "endpoint: mean survival time, dose: 1.0 mg/kg/injection, schedule: Q01DX005 (iv), vehicle: saline", "value": "101 % of control"},
      {"measurement": "T/C", "setting": "endpoint: mean survival time, dose: 1.0 mg/kg/injection, schedule: Q01DX009 (ip), vehicle: saline", "value": "96 % of control and 112 % of control"},
      {"measurement": "T/C", "setting": "endpoint: mean survival time, dose: 1.0 mg/kg/injection, schedule: Q01DX009 (sc), vehicle: saline", "value": "114 % of control"},
      {"measurement": "T/C", "setting": "endpoint: mean survival time, dose: 1.0 mg/kg/injection, schedule: Q03HX008 (ip), vehicle: saline", "value": "106 % of control"},
      {"measurement": "T/C", "setting": "endpoint: mean survival time, dose: 1.0 mg/kg/injection, schedule: Q03HX016 (ip), vehicle: saline", "value": "104 % of control"},
      {"measurement": "T/C", "setting": "endpoint: mean survival time, dose: 1.5 mg/kg/injection, schedule: Q01DX009 (ip), vehicle: saline", "value": "111 % of control"},
      {"measurement": "T/C", "setting": "endpoint: mean survival time, dose: 2.0 mg/kg/injection, schedule: Q01DX005 (iv), vehicle: saline", "value": "108 % of control"},
      {"measurement": "T/C", "setting": "endpoint: mean survival time, dose: 2.0 mg/kg/injection, schedule: Q01DX009 (ip), vehicle: saline", "value": "120 % of control and 122 % of control (2×)"},
      {"measurement": "T/C", "setting": "endpoint: mean survival time, dose: 2.0 mg/kg/injection, schedule: Q03DX003 (ip), vehicle: saline", "value": "112 % of control"},
      {"measurement": "T/C", "setting": "endpoint: mean survival time, dose: 2.0 mg/kg/injection, schedule: Q03HX008 (ip), vehicle: saline", "value": "118 % of control"},
      {"measurement": "T/C", "setting": "endpoint: mean survival time, dose: 2.0 mg/kg/injection, schedule: Q03HX016 (ip), vehicle: saline", "value": "117 % of control"},
      {"measurement": "T/C", "setting": "endpoint: mean survival time, dose: 2.0 mg/kg/injection, schedule: Q03HX024 (ip), vehicle: saline", "value": "88 % of control"},
      {"measurement": "T/C", "setting": "endpoint: mean survival time, dose: 2.0 mg/kg/injection, schedule: Q04DX003 (ip), vehicle: saline", "value": "101 % of control"},
      {"measurement": "T/C", "setting": "endpoint: mean survival time, dose: 2.5 mg/kg/injection, schedule: Q04DX003 (ip), vehicle: saline", "value": "101 % of control"},
      {"measurement": "T/C", "setting": "endpoint: mean survival time, dose: 4.0 mg/kg/injection, schedule: Q01DX001 (iv), vehicle: saline", "value": "117 % of control"},
      {"measurement": "T/C", "setting": "endpoint: mean survival time, dose: 4.0 mg/kg/injection, schedule: Q01DX001 (sc), vehicle: saline", "value": "103 % of control"},
      {"measurement": "T/C", "setting": "endpoint: mean survival time, dose: 4.0 mg/kg/injection, schedule: Q01DX007 (ip), vehicle: saline", "value": "158 % of control"},
      {"measurement": "T/C", "setting": "endpoint: mean survival time, dose: 4.0 mg/kg/injection, schedule: Q01DX009 (ip), vehicle: saline", "value": "154 % of control and 166 % of control and 171 % of control"},
      {"measurement": "T/C", "setting": "endpoint: mean survival time, dose: 4.0 mg/kg/injection, schedule: Q01DX009 (oral), vehicle: saline", "value": "122 % of control"},
      {"measurement": "T/C", "setting": "endpoint: mean survival time, dose: 4.0 mg/kg/injection, schedule: Q04DX003 (ip), vehicle: saline", "value": "120 % of control"},
      {"measurement": "T/C", "setting": "endpoint: mean survival time, dose: 6.0 mg/kg/injection, schedule: Q01DX001 (ip), vehicle: saline", "value": "115 % of control"},
      {"measurement": "T/C", "setting": "endpoint: mean survival time, dose: 7.7 mg/kg/injection, schedule: Q01DX001 (ip), vehicle: saline with Tween-80", "value": "112 % of control"},
      {"measurement": "T/C", "setting": "endpoint: mean survival time, dose: 7.7 mg/kg/injection, schedule: Q01DX001 (ip), vehicle: saline", "value": "123 % of control and 106 % of control"},
      {"measurement": "T/C", "setting": "endpoint: mean survival time, dose: 8.0 mg/kg/injection, schedule: Q01DX001 (ip), vehicle: saline", "value": "110 % of control"},
      {"measurement": "T/C", "setting": "endpoint: mean survival time, dose: 8.0 mg/kg/injection, schedule: Q01DX001 (sc), vehicle: saline", "value": "115 % of control"},
      {"measurement": "T/C", "setting": "endpoint: mean survival time, dose: 8.0 mg/kg/injection, schedule: Q01DX007 (ip), vehicle: saline", "value": "110 % of control"},
      {"measurement": "T/C", "setting": "endpoint: mean survival time, dose: 8.0 mg/kg/injection, schedule: Q01DX009 (sc), vehicle: saline", "value": "114 % of control"},
      {"measurement": "T/C", "setting": "endpoint: mean survival time, dose: 8.0 mg/kg/injection, schedule: Q03DX003 (ip), vehicle: saline", "value": "209 % of control"},
      {"measurement": "T/C", "setting": "endpoint: mean survival time, dose: 8.0 mg/kg/injection, schedule: Q04DX003 (ip), vehicle: saline", "value": "179 % of control and 183 % of control"},
      {"measurement": "T/C", "setting": "endpoint: mean survival time, dose: 8.0 mg/kg/injection, schedule: Q08DX002 (ip), vehicle: saline", "value": "122 % of control"},
      {"measurement": "T/C", "setting": "endpoint: mean survival time, dose: 10.0 mg/kg/injection, schedule: Q04DX003 (ip), vehicle: saline", "value": "153 % of control"},
      {"measurement": "T/C", "setting": "endpoint: mean survival time, dose: 10.9 mg/kg/injection, schedule: Q01DX001 (ip), vehicle: saline with Tween-80", "value": "122 % of control"},
      {"measurement": "T/C", "setting": "endpoint: mean survival time, dose: 10.9 mg/kg/injection, schedule: Q01DX001 (ip), vehicle: saline", "value": "122 % of control and 124 % of control"},
      {"measurement": "T/C", "setting": "endpoint: mean survival time, dose: 12.0 mg/kg/injection, schedule: Q01DX001 (ip), vehicle: saline", "value": "153 % of control"},
      {"measurement": "T/C", "setting": "endpoint: mean survival time, dose: 15.0 mg/kg/injection, schedule: Q01DX001 (ip), vehicle: saline", "value": "161 % of control"},
      {"measurement": "T/C", "setting": "endpoint: mean survival time, dose: 16.0 mg/kg/injection, schedule: Q01DX001 (ip), vehicle: saline", "value": "154 % of control"},
      {"measurement": "T/C", "setting": "endpoint: mean survival time, dose: 16.0 mg/kg/injection, schedule: Q01DX001 (iv), vehicle: saline", "value": "155 % of control"},
      {"measurement": "T/C", "setting": "endpoint: mean survival time, dose: 16.0 mg/kg/injection, schedule: Q01DX009 (ip), vehicle: saline", "value": "96 % of control"},
      {"measurement": "T/C", "setting": "endpoint: mean survival time, dose: 16.0 mg/kg/injection, schedule: Q01DX009 (oral), vehicle: saline", "value": "120 % of control"},
      {"measurement": "T/C", "setting": "endpoint: mean survival time, dose: 16.0 mg/kg/injection, schedule: Q04DX003 (ip), vehicle: saline", "value": "95 % of control"},
      {"measurement": "T/C", "setting": "endpoint: mean survival time, dose: 20.0 mg/kg/injection, schedule: Q04DX003 (ip), vehicle: saline", "value": "124 % of control"},
      {"measurement": "T/C", "setting": "endpoint: mean survival time, dose: 22.4 mg/kg/injection, schedule: Q01DX001 (ip), vehicle: saline with Tween-80", "value": "163 % of control"},
      {"measurement": "T/C", "setting": "endpoint: mean survival time, dose: 32.0 mg/kg/injection, schedule: Q01DX001 (ip), vehicle: saline with Tween-80", "value": "89 % of control"},
      {"measurement": "T/C", "setting": "endpoint: mean survival time, dose: 32.0 mg/kg/injection, schedule: Q01DX001 (oral), vehicle: saline", "value": "154 % of control"},
      {"measurement": "T/C", "setting": "endpoint: median survival time, dose: 1.56 mg/kg/injection, schedule: Q01DX009 (ip), vehicle: saline", "value": "117 % of control"},
      {"measurement": "T/C", "setting": "endpoint: median survival time, dose: 3.0 mg/kg/injection, schedule: Q01DX009 (ip), vehicle: water", "value": "97 % of control"},
      {"measurement": "T/C", "setting": "endpoint: median survival time, dose: 3.13 mg/kg/injection, schedule: Q01DX009 (ip), vehicle: saline", "value": "164 % of control and 178 % of control"},
      {"measurement": "T/C", "setting": "endpoint: median survival time, dose: 6.0 mg/kg/injection, schedule: Q01DX009 (ip), vehicle: water", "value": "95 % of control"},
      {"measurement": "T/C", "setting": "endpoint: median survival time, dose: 8.0 mg/kg/injection, schedule: Q01DX009 (ip), vehicle: water", "value": "88 % of control"},
      {"measurement": "T/C", "setting": "endpoint: median survival time, dose: 12.5 mg/kg/injection, schedule: Q01DX009 (ip), vehicle: saline", "value": "88 % of control and 107 % of control"},
      {"measurement": "T/C", "setting": "endpoint: median survival time, dose: 16.0 mg/kg/injection, schedule: Q01DX009 (ip), vehicle: water", "value": "77 % of control"},
      {"measurement": "T/C", "setting": "endpoint: median survival time, dose: 20.0 mg/kg/injection, schedule: Q01DX001 (ip), vehicle: saline", "value": "172 % of control"},
      {"measurement": "T/C", "setting": "endpoint: median survival time, dose: 25.0 mg/kg/injection, schedule: Q01DX001 (ip), vehicle: saline", "value": "193 % of control"}
    ]},
    {"smiles": "O=c1[nH]cnc2c1nc(NCc1ccccc1)n2C1OC(CO)C(O)C1O", "note": "(stereo not drawn)", "values": [
      {"measurement": "T/C", "setting": "endpoint: mean survival time, dose: 12.5 mg/kg/injection, schedule: Q01DX005 (ip), vehicle: distilled water + Tween-80", "value": "98 % of control"},
      {"measurement": "T/C", "setting": "endpoint: mean survival time, dose: 25.0 mg/kg/injection, schedule: Q01DX005 (ip), vehicle: distilled water + Tween-80", "value": "96 % of control"},
      {"measurement": "T/C", "setting": "endpoint: mean survival time, dose: 50.0 mg/kg/injection, schedule: Q01DX005 (ip), vehicle: distilled water + Tween-80", "value": "96 % of control"},
      {"measurement": "T/C", "setting": "endpoint: mean survival time, dose: 100.0 mg/kg/injection, schedule: Q01DX005 (ip), vehicle: distilled water + Tween-80", "value": "101 % of control"},
      {"measurement": "T/C", "setting": "endpoint: mean survival time, dose: 150.0 mg/kg/injection, schedule: Q01DX005 (ip), vehicle: distilled water + Tween-80", "value": "98 % of control"}
    ]},
    {"smiles": "CN(CC(=O)O)Cc1ccccc1", "values": [
      {"measurement": "T/C", "setting": "endpoint: mean survival time, dose: 50.0 mg/kg/injection, schedule: Q04DX003 (ip), vehicle: saline", "value": "102 % of control"},
      {"measurement": "T/C", "setting": "endpoint: mean survival time, dose: 100.0 mg/kg/injection, schedule: Q04DX003 (ip), vehicle: saline", "value": "100 % of control"},
      {"measurement": "T/C", "setting": "endpoint: mean survival time, dose: 200.0 mg/kg/injection, schedule: Q04DX003 (ip), vehicle: saline", "value": "108 % of control"}
    ]}
  ]
}
